Experimental data: PMC8199946

How the values were obtained:
[1] = macrolactonisation by intramolecular SN2 of carboxylate on C6 tosylate of GlcNAc derivative, K2CO3 2 equiv; conditions: MeCN, 6.0 mM, 75.0 °C
[2] = macrolactonisation by intramolecular SN2 of carboxylate on C6 sulfonate (tosylate; one brosylate, one chloride) of glucosamine derivative, K2CO3 2 equiv; conditions: DMF, 10.0 mM, 75.0 °C

## CC(=O)N[C@H]1[C@H]2OCCn3cc(nn3)CCCCCCCCC(=O)OC[C@@H](O2)[C@@H](OC(=O)c2ccccc2)[C@@H]1OC(=O)c1ccccc1 [8c -> LM28 (13c)]
[1]; from CC(=O)N[C@H]1[C@@H](OCCn2cc(CCCCCCCCC(=O)O)nn2)O[C@H](COS(=O)(=O)c2ccc(C)cc2)[C@@H](OC(=O)c2ccccc2)[C@@H]1OC(=O)c1ccccc1, 20-membered ring, 6.0 h
  ring closure, isolated yield: 77%

## CC(=O)N[C@H]1[C@H]2OCCCn3cc(nn3)CCCCC(=O)OC[C@@H](O2)[C@@H](OC(=O)c2ccccc2)[C@@H]1OC(=O)c1ccccc1 [12a -> 14a (LM34)]
[2]; from CC(=O)N[C@H]1[C@@H](OCCCn2cc(CCCCC(=O)O)nn2)O[C@H](COS(=O)(=O)c2ccc(C)cc2)[C@@H](OC(=O)c2ccccc2)[C@@H]1OC(=O)c1ccccc1, 17-membered ring, 2.0 h
  ring closure, isolated yield: 88%

## CC(=O)N[C@H]1[C@H]2OCCCn3cc(nn3)CCCCCCC(=O)OC[C@@H](O2)[C@@H](OC(=O)c2ccccc2)[C@@H]1OC(=O)c1ccccc1 [12b -> 14b (LM36)]
[2]; from CC(=O)N[C@H]1[C@@H](OCCCn2cc(CCCCCCC(=O)O)nn2)O[C@H](COS(=O)(=O)c2ccc(C)cc2)[C@@H](OC(=O)c2ccccc2)[C@@H]1OC(=O)c1ccccc1, 19-membered ring, 2.0 h
  ring closure, isolated yield: 83%

## CC(=O)N[C@H]1[C@H]2OCCn3cc(nn3)CCCCCCCCC(=O)OC[C@@H](O2)[C@@H](OC(=O)c2ccccc2)[C@@H]1OC(=O)c1ccccc1 [8c -> 13c (LM28), OTs]
[2]; from CC(=O)N[C@H]1[C@@H](OCCn2cc(CCCCCCCCC(=O)O)nn2)O[C@H](COS(=O)(=O)c2ccc(C)cc2)[C@@H](OC(=O)c2ccccc2)[C@@H]1OC(=O)c1ccccc1, 20-membered ring, 3.0 h
  ring closure, isolated yield: 82%

## CC(=O)N[C@H]1[C@H]2OCCn3cc(nn3)CCCCCCC(=O)OC[C@@H](O2)[C@@H](OC(=O)c2ccccc2)[C@@H]1OC(=O)c1ccccc1 [11b -> 13b (LM26)]
[2]; from CC(=O)N[C@H]1[C@@H](OCCn2cc(CCCCCCC(=O)O)nn2)O[C@H](COS(=O)(=O)c2ccc(C)cc2)[C@@H](OC(=O)c2ccccc2)[C@@H]1OC(=O)c1ccccc1, 18-membered ring, 5.0 h
  ring closure, isolated yield: 76%

## CC(=O)N[C@H]1[C@H]2OCCn3cc(nn3)CCCCCCCCC(=O)OC[C@@H](O2)[C@@H](OC(=O)c2ccccc2)[C@@H]1OC(=O)c1ccccc1 [8a -> LM28, OBs]
[2]; from CC(=O)N[C@H]1[C@@H](OCCn2cc(CCCCCCCCC(=O)O)nn2)O[C@H](COS(=O)(=O)c2ccc(Br)cc2)[C@@H](OC(=O)c2ccccc2)[C@@H]1OC(=O)c1ccccc1, 20-membered ring, 5.0 h
  ring closure, isolated yield: 72%

## CC(=O)N[C@H]1[C@H]2OCCCn3cc(nn3)CCCCCCCCC(=O)OC[C@@H](O2)[C@@H](OC(=O)c2ccccc2)[C@@H]1OC(=O)c1ccccc1 [12c -> 14c (LM38)]
[2]; from CC(=O)N[C@H]1[C@@H](OCCCn2cc(CCCCCCCCC(=O)O)nn2)O[C@H](COS(=O)(=O)c2ccc(C)cc2)[C@@H](OC(=O)c2ccccc2)[C@@H]1OC(=O)c1ccccc1, 21-membered ring, 2.0 h
  ring closure, isolated yield: 83%

## CC(=O)N[C@H]1[C@H]2OCCCn3cc(nn3)CCCCc3cn(nn3)CCC(=O)OC[C@@H](O2)[C@@H](OC(=O)c2ccccc2)[C@@H]1OC(=O)c1ccccc1 [15c -> 16c (DM34)]
[1]; from CC(=O)N[C@H]1[C@@H](OCCCn2cc(CCCCc3cn(CCC(=O)O)nn3)nn2)O[C@H](COS(=O)(=O)c2ccc(C)cc2)[C@@H](OC(=O)c2ccccc2)[C@@H]1OC(=O)c1ccccc1, 22-membered ring, 14.0 h
  ring closure, isolated yield: 78%
[2]; from CC(=O)N[C@H]1[C@@H](OCCCn2cc(CCCCc3cn(CCC(=O)O)nn3)nn2)O[C@H](COS(=O)(=O)c2ccc(C)cc2)[C@@H](OC(=O)c2ccccc2)[C@@H]1OC(=O)c1ccccc1, 22-membered ring, 2.0 h
  ring closure, isolated yield: 85%

## CC(=O)N[C@H]1[C@H]2OCCn3cc(nn3)CCCCCCCCC(=O)OC[C@@H](O2)[C@@H](OC(=O)c2ccccc2)[C@@H]1OC(=O)c1ccccc1 [8b -> LM28, Cl]
[2]; from CC(=O)N[C@H]1[C@@H](OCCn2cc(CCCCCCCCC(=O)O)nn2)O[C@H](CCl)[C@@H](OC(=O)c2ccccc2)[C@@H]1OC(=O)c1ccccc1, 20-membered ring, 5.0 h
  ring closure, isolated yield: 67%

## CC(=O)N[C@H]1[C@H]2OCCn3cc(nn3)CCCCCc3cn(nn3)CCC(=O)OC[C@@H](O2)[C@@H](OC(=O)c2ccccc2)[C@@H]1OC(=O)c1ccccc1 [15b -> 16b (DM25)]
[1]; from CC(=O)N[C@H]1[C@@H](OCCn2cc(CCCCCc3cn(CCC(=O)O)nn3)nn2)O[C@H](COS(=O)(=O)c2ccc(C)cc2)[C@@H](OC(=O)c2ccccc2)[C@@H]1OC(=O)c1ccccc1, 22-membered ring, 14.0 h
  ring closure, isolated yield: 71%
[2]; from CC(=O)N[C@H]1[C@@H](OCCn2cc(CCCCCc3cn(CCC(=O)O)nn3)nn2)O[C@H](COS(=O)(=O)c2ccc(C)cc2)[C@@H](OC(=O)c2ccccc2)[C@@H]1OC(=O)c1ccccc1, 22-membered ring, 2.0 h
  ring closure, isolated yield: 88%

## CC(=O)N[C@H]1[C@H]2OCCn3cc(nn3)CCCCc3cn(nn3)CCC(=O)OC[C@@H](O2)[C@@H](OC(=O)c2ccccc2)[C@@H]1OC(=O)c1ccccc1 [15a -> 16a (DM24)]
[1]; from CC(=O)N[C@H]1[C@@H](OCCn2cc(CCCCc3cn(CCC(=O)O)nn3)nn2)O[C@H](COS(=O)(=O)c2ccc(C)cc2)[C@@H](OC(=O)c2ccccc2)[C@@H]1OC(=O)c1ccccc1, 21-membered ring, 11.0 h
  ring closure, isolated yield: 77%
[2]; from CC(=O)N[C@H]1[C@@H](OCCn2cc(CCCCc3cn(CCC(=O)O)nn3)nn2)O[C@H](COS(=O)(=O)c2ccc(C)cc2)[C@@H](OC(=O)c2ccccc2)[C@@H]1OC(=O)c1ccccc1, 21-membered ring, 4.0 h
  ring closure, isolated yield: 90%

## CO[C@H]1O[C@@H]2COC(=O)CCCCCCCCc3cn(nn3)CC(=O)N[C@@H]1[C@@H](OC(=O)c1ccccc1)[C@@H]2OC(=O)c1ccccc1 [21 -> 22 (C2ML)]
[2]; from CO[C@H]1O[C@H](COS(=O)(=O)c2ccc(C)cc2)[C@@H](OC(=O)c2ccccc2)[C@H](OC(=O)c2ccccc2)[C@H]1NC(=O)Cn1cc(CCCCCCCCC(=O)O)nn1, 21-membered ring, 2.0 h
  ring closure, isolated yield: 80%

## CC(=O)N[C@H]1[C@H]2OCCn3cc(nn3)CCCCC(=O)OC[C@@H](O2)[C@@H](OC(=O)c2ccccc2)[C@@H]1OC(=O)c1ccccc1 [11a -> 13a (LM24)]
[2]; from CC(=O)N[C@H]1[C@@H](OCCn2cc(CCCCC(=O)O)nn2)O[C@H](COS(=O)(=O)c2ccc(C)cc2)[C@@H](OC(=O)c2ccccc2)[C@@H]1OC(=O)c1ccccc1, 16-membered ring, 2.0 h
  ring closure, isolated yield: 88%

## CC(=O)N[C@H]1[C@H]2OCCCn3cc(nn3)CCCCCc3cn(nn3)CCC(=O)OC[C@@H](O2)[C@@H](OC(=O)c2ccccc2)[C@@H]1OC(=O)c1ccccc1 [15d -> 16d (DM35)]
[1]; from CC(=O)N[C@H]1[C@@H](OCCCn2cc(CCCCCc3cn(CCC(=O)O)nn3)nn2)O[C@H](COS(=O)(=O)c2ccc(C)cc2)[C@@H](OC(=O)c2ccccc2)[C@@H]1OC(=O)c1ccccc1, 23-membered ring, 15.0 h
  ring closure, isolated yield: 74%
[2]; from CC(=O)N[C@H]1[C@@H](OCCCn2cc(CCCCCc3cn(CCC(=O)O)nn3)nn2)O[C@H](COS(=O)(=O)c2ccc(C)cc2)[C@@H](OC(=O)c2ccccc2)[C@@H]1OC(=O)c1ccccc1, 23-membered ring, 3.0 h
  ring closure, isolated yield: 78%

## CO[C@H]1O[C@@H]2COC(=O)CCn3cc(nn3)CCCCc3cn(nn3)CC(=O)N[C@@H]1[C@@H](OC(=O)c1ccccc1)[C@@H]2OC(=O)c1ccccc1 [23 -> 24 (C2DLM)]
[2]; from CO[C@H]1O[C@H](COS(=O)(=O)c2ccc(C)cc2)[C@@H](OC(=O)c2ccccc2)[C@H](OC(=O)c2ccccc2)[C@H]1NC(=O)Cn1cc(CCCCc2cn(CCC(=O)O)nn2)nn1, 22-membered ring, 2.0 h
  ring closure, isolated yield: 77%
